Assay results published in ChEMBL document CHEMBL1201862, “PubChem BioAssay data set” (2004).
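96-well plates; 48 h exposure; 5 concentrations. Endpoints by linear interpolation between flanking doses. Not reached: highest tested concentration assigned. GI50 is the concentration that inhibits growth by half.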 Active and inactive are the calls of the source. Rule as the data show it: active = GI50 up to about 1.1 µM and inactive = higher.

Legend:
Assay in all cases: NCI-60 cell line screen, 48 h
M19-MEL = system: M19-MEL
RXF 631 = system: RXF 631
DLD-1 = system: DLD-1
HOP-18 = system: HOP-18
PC-3 = system: PC-3
MDA-MB-435 = system: MDA-MB-435
Hs-578T = system: Hs-578T
MDA-MB-231 = system: MDA-MB-231
BT-549 = system: BT-549

Measured: GI50

CN(C)/N=C(/c1nc2ccc(Cl)cc2nc1O)C(O)c1ccc(C(O)/C(=N\N(C)C)c2nc3ccc(Cl)cc3nc2O)cc1 (centres undefined)
inactive: M19-MEL > 100 µM | RXF 631 91.4 µM | DLD-1 > 100 µM

O=C1N(C2CCCCC2)CC12CCCCC2
inactive: M19-MEL > 100 µM | RXF 631 > 100 µM | HOP-18 94.6 µM

COc1cc(C2C(C(=O)NCc3ccccc3)=C(C)NC(C)=C2C(=O)NCc2ccccc2)ccc1O
inactive: M19-MEL 39.4 µM | RXF 631 27.3 µM

O=C1NC2OCC(O)C(O1)C2O (centres undefined)
inactive: M19-MEL > 100 µM | RXF 631 > 100 µM | DLD-1 > 100 µM | HOP-18 > 100 µM

CC(=O)OC1/C=C(\C)C(OC(C)=O)C/C=C(/C)CCC2C(/C=C/C1=O)C2(C)C (centres undefined)
inactive: M19-MEL > 100 µM | RXF 631 > 100 µM | DLD-1 > 100 µM | HOP-18 > 100 µM

C(=C\c1csnn1)/c1cccnc1
inactive: M19-MEL > 100 µM | RXF 631 81.7 µM | DLD-1 > 100 µM | HOP-18 > 100 µM

O=c1c2ccccc2nc(-c2ccc(Br)cc2)n1NC1OC(CO)C(O)C(O)C1O (centres undefined)
inactive: M19-MEL > 100 µM | RXF 631 > 100 µM | HOP-18 > 100 µM

C=C1C(=O)O[C@@H]2C[C@@]3(C)[C@H](O)CCC(=C)[C@@H]3C[C@H]12 [ASPERILIN]
inactive: M19-MEL 6.68 µM | RXF 631 13.6 µM | DLD-1 3.69 µM

CCOc1ccc(NC(=O)C(=O)CC(=O)c2c(C)[n+]([O-])c3ccccc3[n+]2[O-])cc1
inactive: M19-MEL > 100 µM | RXF 631 > 100 µM | HOP-18 24.9 µM

COc1ccc(OC)c(/C=C/NC=O)c1
inactive: PC-3 > 100 µM | M19-MEL > 100 µM | DLD-1 > 100 µM | HOP-18 > 100 µM

C[C@]12CC[C@H](OC3CCCCO3)CC1=CC[C@@H]1C2CC[C@]2(C)/C(=N/OCCC#N)CCC12 (some centres undefined)
inactive: M19-MEL > 100 µM | RXF 631 33.6 µM | DLD-1 > 100 µM | HOP-18 > 100 µM

COc1c2c(nc3ccccc13)-c1cc3c(c(=O)n1C2)COC(=O)C3(O)CC(=O)N1CCOCC1 (centres undefined)
inactive: PC-3 21.1 µM | MDA-MB-435 18.7 µM | M19-MEL 5.58 µM | Hs-578T 12.6 µM | MDA-MB-231 69.7 µM | DLD-1 40.4 µM | HOP-18 18 µM | BT-549 5.62 µM

O=C(O)CNS(=O)(=O)c1ccc(NC(=O)c2ccc(F)cc2)cc1
inactive: M19-MEL > 100 µM | RXF 631 > 100 µM | DLD-1 > 100 µM | HOP-18 > 100 µM

O=C1NC2(CCCCC2)C2CCCCC(O)C12 (centres undefined)
inactive: M19-MEL > 100 µM | RXF 631 > 100 µM | DLD-1 > 100 µM

COc1ccc(C2C3C(=O)C=CC(=O)C3[C@@H]2C)cc1OC (some centres undefined)
inactive: M19-MEL > 100 µM | RXF 631 > 100 µM | DLD-1 > 100 µM | HOP-18 > 100 µM

COC(=O)c1cc2c(s1)C(=O)c1ccccc1-2
inactive: M19-MEL > 100 µM | RXF 631 > 100 µM | DLD-1 > 100 µM | HOP-18 > 100 µM

CCC1=CCN(c2ccc(C)cc2)OC1c1ccc(OC)cc1 (centres undefined)
inactive: M19-MEL 42.7 µM | RXF 631 52.4 µM | DLD-1 58.1 µM

C=C1Oc2nc3ccccc3c(=O)n2C1(C)C
inactive: M19-MEL > 100 µM | DLD-1 > 100 µM | HOP-18 > 100 µM

C(=C/c1nc2ccccc2o1)/c1ccc2c(c1)OCO2
inactive: M19-MEL 21.2 µM | DLD-1 5.74 µM | HOP-18 5.21 µM
